Series [1] can be described thus: Pharmacokinetics: LSD plasma levels by UHPLC-MS/MS. In kind it is in vivo. Particulars: both sexes, human, single oral dose 20 μg LSD, read-out: mean (SD) plasma LSD concentration. How it is done:
(§1) Twenty-four healthy participants (12 male, 12 female) participated in a randomized, double-blind, placebo-controlled, within-subject study in which they received single oral doses of 20 μg LSD (hydrate) and placebo on 4 separate test days. A minimum washout of 5 days proceeded in between to avoid carry-over effects. Treatment orders were randomly assigned to participants according to a balanced block design. LSD was formulated as a solution of 25 μg LSD base in 1 ml 96% ethanol according to GMP and administered orally. LSD doses (0.8 ml for 20 μg LSD) were supplemented with an ethanol solution up to a total volume 1 ml and administered with a syringe under the tongue. Placebo consisted of a 1 ml ethanol solution only. Treatments were administered at 10 AM.
At 1.5 and 5 hours post treatment, participants conducted a Cold Pressor Test (further described below). […] Vital signs were recorded at baseline, every 30 minutes during the first three hours after dosing, and at every hour thereafter. […]
Blood samples were centrifuged, and plasma was frozen at −20° C. until analysis for pharmacokinetic assessments. LSD plasma levels were analysed by ultra-high-performance liquid chromatography tandem mass spectrometry (UHPLC-MS/MS) as previously described previously. PK Samples with a LSD concentration below […] were re-analysed by a different extraction procedure. […]

Series [2] has as its system healthy participants. As to the kind of experiment: Vital signs (heart rate, blood pressure). In kind it is in vivo, human. Particulars: single oral dose 20 μg LSD vs placebo; data not shown. How it is done: as §1
(§2) At 1.5 and 5 hours post treatment, participants conducted a Cold Pressor Test (further described below). The Brief Symptom Inventory and the Clinician Administered Dissociation State Scale (CADSS) were administered prior to treatment administration (baseline) and at the end of a test day, i.e. at 6 hours post dosing. Vital signs were recorded at baseline, every 30 minutes during the first three hours after dosing, and at every hour thereafter. Blood samples were collected at every hour. Participants resided in a secluded room that contained a bed, table and chairs. Standardized lunches were provided around 12 AM.
Heart rate (bpm) and blood pressure (mmHg) were repeatedly assessed using an Omron M6 (HEM-7321-E, Omron Healthcare Europe By) device.
Analyses were carried out by means of the SPSS 25 program series to investigate whether the effects of LSD doses differed from those of placebo. CPT parameters and baseline adjusted parameters of vital signs were analysed using a three factor ANOVA to assess main effects of Treatment, Time after treatment and Participant as well as the interaction Treatment×Time after treatment. Mean contrast (LSD dose versus placebo) tests were conducted for measuring the significance of individual dose effects, relative to placebo. […]

The subject of series [3] is healthy participants. The experiment in a line: Cold Pressor Test (CPT), placebo-controlled trial. In kind it is in vivo, human. Conditions: single oral dose 20 μg LSD vs placebo, 1.5 and 5 hours post treatment. How it is done:
as §1, §2
The CPT was used to induce a painful sensation according to previously validated procedure (Smeets et al. Psychoneuroend. 2012, 37, 1998-2008). The CPT is the most commonly used test to induce conditioned pain modulation and to evaluate analgesic properties such as pain tolerance in healthy subjects (see, for instance, Okkerse et al. Br J Clin Pharmacol. 2017, 83(5), 976-990; Oaks et al. Discov Med. 2018, 26(144), 197-206). […]
A water tank was filled with water that was cooled to 3° C. […] Dependent measures of the CPT included pain tolerance (sec) and subjective ratings of painfulness, unpleasantness and stress as assessed 10 cm visual analogue scales. Water temperature at onset and completion of the CPT were assessed as control measure.
Analyses were carried out by means of the SPSS 25 program series to investigate whether the effects of LSD doses differed from those of placebo. CPT parameters and baseline adjusted parameters of vital signs were analysed using a three factor ANOVA to assess main effects of Treatment, Time after treatment and Participant as well as the interaction Treatment×Time after treatment. […]

Structures are written as SMILES. Entries after “also recorded” stand apart in the source; their conditions may differ.

In the case of `CCN(CC)C(=O)[C@@H]1C=C2c3cccc4[nH]cc(c34)C[C@H]2N(C)C1` [LSD, (D)-lysergic acid diethylamide], the concentration at 1.5 h in series [1] (1.5 hours after administration) stood at 0.482 ng/mL. The concentration at 6 h in series [1] (6 hours post treatment) is 0.223 ng/mL. In addition, in series [2], the diastolic blood pressure result is given as “slightly increased”, the heart rate entry is “not affected” and the systolic blood pressure entry is listed as “slightly increased”. In addition, in series [3], the “stress during the CPT (10 cm visual analogue scale)” value was “did not lead to a significant change; also recorded: not affected”. Moreover, in series [3] (p=0.006), the “pain tolerance during the CPT” value is on record as “significant increase; also recorded: significantly increased”. In addition, the “unpleasantness during the CPT (10 cm visual analogue scale)” value in series [3] (p=0.008) is listed as “significant decrease; also recorded: decreased”. Further, the “painfulness during the CPT (10 cm visual analogue scale)” value in series [3] (p=0.012) is “significant decrease; also recorded: decreased”.

The values are drawn from US20230139543A1, “COMPOUNDS FOR USE IN A METHOD OF TREATING, PREVENTING AND/OR REDUCING THE SYMPTOMS OF PAIN” (The Beckley Foundation, priority 2020, published 2023).
